This series can be described thus: recombinant barcode read abundance after kanamycin selection (control-corrected) (log10(CPM+1)); higher = more efficient recombination; sequences stand for … in AGTGCAGAGAAAATCGGCCAGTTTTCTCTGCCTGCAGTCCGCATGCCGT…AGATTTATGCAGCGGACTGCCTTTCTCCCAAAGTGATAAACCGGACAGTATCATGGACCGGTTTTCCCGGTAATCCGTATTTGCAAGGTTGGTTTCACT; site = the 11-nt target. The essentials:
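In E. coli, a pooled library matched targets to IS621 bridge RNA target-binding loops and was introduced alongside a donor plasmid. Cells went onto chloramphenicol/ampicillin/kanamycin with 0.1 mM IPTG or onto chloramphenicol/ampicillin LB agar as control, in duplicate. Recombination efficiency, from recombinant-junction barcodes as counts per million, is averaged and control-corrected. It is reported as log10(CPM+1).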
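Also: IS621 recombinase and bridge RNA in Escherichia coli cells.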

“CCGTGGACTTGGGTTCTAACCTGTTGCCA (site CCGTGGACTTG)”: the “recombinant barcode read abundance (log10)” value worked out at 0.42.
On to “CCTAAACCTTGGGTTCTAACCTGTTGCGT (site CCTAAACCTAC)”, for which the “recombinant barcode read abundance (log10)” value amounted to 1.63.
On to “CCTAAACCTTGGGTTCTAACCTGTTGCGT (site CCTAACCCTAC)”, for which the “recombinant barcode read abundance (log10)” value was 0.0278.
For “CCTAAACCTTGGGTTCTAACCTGTTGCGT (site CCTAAGCCTAC)” the value was 0.03; for “CCTAAACCTTGGGTTCTAACCTGTTGCGT (site CCTAATCCTAC)”, 0.0605; for “CCTAACACTTGGGTTCTAACCTGTTGCCT (site ACTAACACTAG)”, 0.0635.
For “CCTAACACTTGGGTTCTAACCTGTTGCCT (site CCTAACACTAG)” the value was 0.501; for “CCTAACACTTGGGTTCTAACCTGTTGCCT (site GCTAACACTAG)”, 0.0372.
The result for “CCTAACACTTGGGTTCTAACCTGTTGCCT (site TCTAACACTAG)” reads 0.114; that for “CCTACACCTTGGGTTCTAACCTGTTGCCT (site CCTACAACTAG)”, 0.0638.
As to “CCTACACCTTGGGTTCTAACCTGTTGCCT (site CCTACACCTAG)”, the “recombinant barcode read abundance (log10)” value was determined as 0.928.
The result for “CCTACACCTTGGGTTCTAACCTGTTGCCT (site CCTACAGCTAG)” reads 0.0384; that for “CCTACACCTTGGGTTCTAACCTGTTGCCT (site CCTACATCTAG)”, 0.52; that for “CCTAGACCTTGGGTTCTAACCTGTTGCCT (site CCTAGAACTAG)”, 0.067.
As to “CCTAGACCTTGGGTTCTAACCTGTTGCCT (site CCTAGACCTAG)”, the “recombinant barcode read abundance (log10)” value turned out to be 0.771.
As for “CCTAGACCTTGGGTTCTAACCTGTTGCCT (site CCTAGAGCTAG)”, the “recombinant barcode read abundance (log10)” value was 0.201.
The result for “CCTAGACCTTGGGTTCTAACCTGTTGCCT (site CCTAGATCTAG)” reads 0.312; that for “CCTAGCACTTGGGTTCTAACCTGTTGCGA (site CCTAGCACTTC)”, 0.939; that for “CCTAGCACTTGGGTTCTAACCTGTTGCGA (site CCTCGCACTTC)”, 0.0896.
Turning to “CCTAGCACTTGGGTTCTAACCTGTTGCGA (site CCTGGCACTTC)”, the “recombinant barcode read abundance (log10)” value turned out to be 0.0943.
“CCTAGCACTTGGGTTCTAACCTGTTGCGA (site CCTTGCACTTC)”: the “recombinant barcode read abundance (log10)” value was found to be 0.0494.
For “CCTATAGCTTGGGTTCTAACCTGTTGCTT (site CCTATAGCTAA)” the value was 0.0878; for “CCTATAGCTTGGGTTCTAACCTGTTGCTT (site GAGTCTACTTG)”, 0.0203; for “CCTCAGGCTTGGGTTCTAACCTGTTGCCT (site CCTCAGGCTAG)”, 0.106.
For “CCTCAGGCTTGGGTTCTAACCTGTTGCCT (site CCTCAGGCTCG)” the value was 0.0672.
On to “CCTCAGGCTTGGGTTCTAACCTGTTGCCT (site CCTCAGGCTGG)”, for which the “recombinant barcode read abundance (log10)” value turned out to be 0.107.
For the sequence “CCTCAGGCTTGGGTTCTAACCTGTTGCCT (site CCTCAGGCTTG)”, the “recombinant barcode read abundance (log10)” value is 0.204.
As to “CCTCAGTCTTGGGTTCTAACCTGTTGCTT (site CCTCAATCTAA)”, the “recombinant barcode read abundance (log10)” value is 0.441.
The result for “CCTCAGTCTTGGGTTCTAACCTGTTGCTT (site CCTCACTCTAA)” reads 0.0235; that for “CCTCAGTCTTGGGTTCTAACCTGTTGCTT (site CCTCAGTCTAA)”, 1.68; that for “CCTCAGTCTTGGGTTCTAACCTGTTGCTT (site CCTCATTCTAA)”, 0.122.
“CCTCGAGCTTGGGTTCTAACCTGTTGCGG (site CCTCGAGCTCC)”: the “recombinant barcode read abundance (log10)” value was found to be 1.86.

The values above are taken from the supplement of paper PMC11208160.
